Experiments:
Assay in all cases: relative viability (nuclei count vs DMSO), 5 days (fraction); higher = more cells survive
A-427 = tested on: A-427
How it was run: (§1)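 Relative viability equals treated-well nuclei counts divided by vehicle-well nuclei counts. Counts came from 4× images of lung cancer cell lines grown in 1536-well plates for 5 days after pin-tool dosing on the day after seeding. Dosing used one drug alone or a fixed anchor-drug dose plus five library-drug doses (not always all listed) in √10 steps, and values are medians of duplicate plates.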

ABC-1 = tested on: ABC-1
How it was run: as §1

BEN = tested on: BEN
How it was run: as §1

HARA = tested on: HARA
How it was run: as §1

LCLC-103H = tested on: LCLC-103H
How it was run: as §1

LK-2 = tested on: LK-2
How it was run: as §1

LOU-NH91 = tested on: LOU-NH91
How it was run: as §1

LU99A = tested on: LU99A
How it was run: as §1

LXF-289 = tested on: LXF-289
How it was run: as §1

NCI-H1437 = tested on: NCI-H1437
How it was run: as §1

NCI-H1666 = tested on: NCI-H1666
How it was run: as §1

NCI-H1755 = tested on: NCI-H1755
How it was run: as §1

NCI-H1793 = tested on: NCI-H1793
How it was run: as §1

NCI-H1993 = tested on: NCI-H1993
How it was run: as §1

NCI-H2085 = tested on: NCI-H2085
How it was run: as §1

NCI-H2170 = tested on: NCI-H2170
How it was run: as §1

NCI-H2342 = tested on: NCI-H2342
How it was run: as §1

NCI-H23 = tested on: NCI-H23
How it was run: as §1

NCI-H2405 = tested on: NCI-H2405
How it was run: as §1

NCI-H3122 = tested on: NCI-H3122
How it was run: as §1

NCI-H661 = tested on: NCI-H661
How it was run: as §1

PC-14 = tested on: PC-14
How it was run: as §1

RERF-LC-KJ = tested on: RERF-LC-KJ
How it was run: as §1

Oc1nc(-c2ccc(C(F)(F)F)cc2)nc2c1CSCC2 [XAV939] + O=C(CCCCCCC(=O)Nc1ccccc1)NO [Vorinostat] (partner 1 µM)
relative viability (A-427; first compound 0.08 µM): 0.804
relative viability (A-427; first compound 0.253 µM): 0.869
relative viability (A-427; first compound 0.8 µM): 0.895
relative viability (A-427; first compound 2.53 µM): 0.745
relative viability (ABC-1; first compound 0.253 µM): 0.767
relative viability (ABC-1; first compound 0.8 µM): 1.12
relative viability (ABC-1; first compound 2.53 µM): 0.568
relative viability (BEN; first compound 0.08 µM): 0.556
relative viability (BEN; first compound 0.253 µM): 0.587
relative viability (BEN; first compound 0.8 µM): 0.514
relative viability (BEN; first compound 2.53 µM): 0.418
relative viability (HARA; first compound 0.08 µM): 0.529
relative viability (HARA; first compound 0.253 µM): 0.511
relative viability (HARA; first compound 0.8 µM): 0.648
relative viability (HARA; first compound 2.53 µM): 0.535
relative viability (LCLC-103H; first compound 0.08 µM): 0.874
relative viability (LCLC-103H; first compound 0.253 µM): 0.698
relative viability (LCLC-103H; first compound 0.8 µM): 0.805
relative viability (LCLC-103H; first compound 2.53 µM): 0.618
relative viability (LK-2; first compound 0.08 µM): 0.371
relative viability (LK-2; first compound 0.253 µM): 0.325
relative viability (LK-2; first compound 0.8 µM): 0.251
relative viability (LK-2; first compound 2.53 µM): 0.24
relative viability (LOU-NH91; first compound 0.08 µM): 0.952
relative viability (LOU-NH91; first compound 0.253 µM): 0.813
relative viability (LOU-NH91; first compound 0.8 µM): 0.88
relative viability (LOU-NH91; first compound 2.53 µM): 0.937
relative viability (LU99A; first compound 0.08 µM): 0.454
relative viability (LU99A; first compound 0.253 µM): 0.598
relative viability (LU99A; first compound 0.8 µM): 0.507
relative viability (LU99A; first compound 2.53 µM): 0.43
relative viability (LXF-289; first compound 0.08 µM): 0.728
relative viability (LXF-289; first compound 0.253 µM): 0.68
relative viability (LXF-289; first compound 0.8 µM): 0.804
relative viability (LXF-289; first compound 2.53 µM): 0.8
relative viability (NCI-H1437; first compound 0.08 µM): 0.834
relative viability (NCI-H1437; first compound 0.253 µM): 0.649
relative viability (NCI-H1437; first compound 0.8 µM): 0.62
relative viability (NCI-H1437; first compound 2.53 µM): 0.477
relative viability (NCI-H1666; first compound 0.08 µM): 0.978
relative viability (NCI-H1666; first compound 0.253 µM): 0.889
relative viability (NCI-H1666; first compound 0.8 µM): 0.906
relative viability (NCI-H1666; first compound 2.53 µM): 1.15
relative viability (NCI-H1755; first compound 0.08 µM): 0.783
relative viability (NCI-H1755; first compound 0.253 µM): 0.729
relative viability (NCI-H1755; first compound 0.8 µM): 0.74
relative viability (NCI-H1755; first compound 2.53 µM): 0.602
relative viability (NCI-H1793; first compound 0.08 µM): 0.952
relative viability (NCI-H1793; first compound 0.253 µM): 0.573
relative viability (NCI-H1793; first compound 0.8 µM): 0.937
relative viability (NCI-H1793; first compound 2.53 µM): 0.733
relative viability (NCI-H1993; first compound 0.08 µM): 0.635
relative viability (NCI-H1993; first compound 0.253 µM): 0.625
relative viability (NCI-H1993; first compound 0.8 µM): 0.691
relative viability (NCI-H1993; first compound 2.53 µM): 0.789
relative viability (NCI-H2085; first compound 0.08 µM): 0.741
relative viability (NCI-H2085; first compound 0.253 µM): 0.736
relative viability (NCI-H2085; first compound 0.8 µM): 0.789
relative viability (NCI-H2085; first compound 2.53 µM): 0.716
relative viability (NCI-H2170; first compound 0.08 µM): 0.86
relative viability (NCI-H2170; first compound 0.253 µM): 0.614
relative viability (NCI-H2170; first compound 0.8 µM): 0.739
relative viability (NCI-H2170; first compound 2.53 µM): 0.543
relative viability (NCI-H2342; first compound 0.08 µM): 0.791
relative viability (NCI-H2342; first compound 0.253 µM): 0.705
relative viability (NCI-H2342; first compound 0.8 µM): 0.768
relative viability (NCI-H2342; first compound 2.53 µM): 0.533
relative viability (NCI-H23; first compound 0.08 µM): 0.684
relative viability (NCI-H23; first compound 0.8 µM): 0.66
relative viability (NCI-H23; first compound 2.53 µM): 0.415
relative viability (NCI-H2405; first compound 0.08 µM): 0.639
relative viability (NCI-H2405; first compound 0.253 µM): 0.922
relative viability (NCI-H2405; first compound 0.8 µM): 0.913
relative viability (NCI-H2405; first compound 2.53 µM): 0.925
relative viability (NCI-H3122; first compound 0.08 µM): 1.03
relative viability (NCI-H3122; first compound 0.253 µM): 0.401
relative viability (NCI-H3122; first compound 0.8 µM): 0.904
relative viability (NCI-H3122; first compound 2.53 µM): 0.997
relative viability (NCI-H661; first compound 0.08 µM): 0.807
relative viability (NCI-H661; first compound 0.253 µM): 0.674
relative viability (NCI-H661; first compound 0.8 µM): 0.777
relative viability (NCI-H661; first compound 2.53 µM): 0.777
relative viability (PC-14; first compound 0.08 µM): 0.96
relative viability (PC-14; first compound 0.253 µM): 0.622
relative viability (PC-14; first compound 0.8 µM): 0.789
relative viability (PC-14; first compound 2.53 µM): 0.598
relative viability (RERF-LC-KJ; first compound 0.08 µM): 0.707
relative viability (RERF-LC-KJ; first compound 0.253 µM): 0.609
relative viability (RERF-LC-KJ; first compound 0.8 µM): 0.643
relative viability (RERF-LC-KJ; first compound 2.53 µM): 0.368

Reference: the supplement of paper PMC10307832
